Experimental data from patent US20250122218A1, “MODULATORS OF CYSTIC FIBROSIS TRANSMEMBRANE CONDUCTANCE REGULATOR” (Vertex Pharmaceuticals Incorporated, priority 2022, published 2025).

Target: T1, CFTR in F508del/MF-HBE cells (Homo sapiens, UniProt P13569, DEL508-508)
T1 construct: human bronchial epithelial (HBE) cells derived from CF subjects heterozygous for F508del and a minimal function CFTR mutation; endogenous in cells; host or cells: primary human bronchial epithelial cells from CF subjects (F508del/MF-HBE)
T1 sequence (P13569 with tags, fused parts or gaps DEL508-508): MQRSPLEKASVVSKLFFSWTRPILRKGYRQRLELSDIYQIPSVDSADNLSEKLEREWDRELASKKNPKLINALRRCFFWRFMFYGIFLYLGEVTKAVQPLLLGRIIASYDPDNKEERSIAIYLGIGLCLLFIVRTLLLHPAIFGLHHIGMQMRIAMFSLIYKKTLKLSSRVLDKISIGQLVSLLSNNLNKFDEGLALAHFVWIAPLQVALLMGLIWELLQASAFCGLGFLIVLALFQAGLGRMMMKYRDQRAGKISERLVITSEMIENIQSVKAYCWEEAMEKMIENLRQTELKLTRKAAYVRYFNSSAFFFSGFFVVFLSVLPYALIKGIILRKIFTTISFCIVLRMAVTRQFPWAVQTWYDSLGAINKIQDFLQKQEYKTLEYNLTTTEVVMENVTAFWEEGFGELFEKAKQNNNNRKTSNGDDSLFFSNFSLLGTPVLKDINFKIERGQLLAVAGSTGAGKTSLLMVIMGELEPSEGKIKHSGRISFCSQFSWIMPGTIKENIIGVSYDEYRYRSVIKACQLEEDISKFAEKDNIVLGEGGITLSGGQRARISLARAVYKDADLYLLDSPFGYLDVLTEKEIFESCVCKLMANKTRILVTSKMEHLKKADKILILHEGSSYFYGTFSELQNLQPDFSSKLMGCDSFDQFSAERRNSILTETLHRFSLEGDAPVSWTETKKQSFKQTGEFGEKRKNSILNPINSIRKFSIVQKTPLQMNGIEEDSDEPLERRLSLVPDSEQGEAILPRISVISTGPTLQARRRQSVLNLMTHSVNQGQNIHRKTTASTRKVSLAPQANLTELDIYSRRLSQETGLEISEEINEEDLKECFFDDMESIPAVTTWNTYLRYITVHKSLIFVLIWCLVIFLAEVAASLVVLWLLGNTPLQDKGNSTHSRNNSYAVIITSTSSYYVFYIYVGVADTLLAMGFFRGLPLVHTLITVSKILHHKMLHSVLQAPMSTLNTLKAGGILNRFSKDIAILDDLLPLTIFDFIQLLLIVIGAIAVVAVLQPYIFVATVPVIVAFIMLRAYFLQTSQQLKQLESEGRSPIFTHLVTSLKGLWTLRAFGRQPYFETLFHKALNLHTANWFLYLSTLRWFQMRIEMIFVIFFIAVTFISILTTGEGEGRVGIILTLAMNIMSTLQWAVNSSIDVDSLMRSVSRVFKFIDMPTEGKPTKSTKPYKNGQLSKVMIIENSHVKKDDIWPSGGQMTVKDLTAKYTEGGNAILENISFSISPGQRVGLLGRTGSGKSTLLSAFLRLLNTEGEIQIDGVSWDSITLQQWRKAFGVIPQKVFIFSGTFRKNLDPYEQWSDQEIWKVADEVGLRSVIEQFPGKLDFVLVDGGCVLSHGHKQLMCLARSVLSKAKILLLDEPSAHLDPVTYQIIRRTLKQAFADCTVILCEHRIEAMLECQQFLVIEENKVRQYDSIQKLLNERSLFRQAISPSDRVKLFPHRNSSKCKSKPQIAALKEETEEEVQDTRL
Experiment: Ussing chamber assay of CFTR-mediated short-circuit currents (identification of potentiator compounds)
Type: cell-based
Settings: potentiator incubated 18-24 hours at 37° C. in combination with 10 μM corrector, in the presence of 20% human serum, CFTR-mediated ISC
Procedure: Ussing chamber experiments were performed using human bronchial epithelial (HBE) cells derived from CF subjects heterozygous for F508del and a minimal function CFTR mutation (F508del/MF-HBE) and cultured as previously described (Neuberger T, Burton B, Clark H, Van Goor F; Methods Mol. Biol. 2011:741:39-54). After four days the apical media was removed, and the cells were grown at an air liquid interface for >14 days prior to use.
To isolate the CFTR-mediated short-circuit (ISC) current, F508del/MF-HBE grown on Costar® Snapwell™ cell culture inserts were mounted in an Ussing chamber and the transepithelial ISC was measured under voltage-clamp recording conditions (Vhold=0 mV) at 37° C. The basolateral solution contained (in mM) 145 NaCl, 0.83 K2HPO4, 3.3 KH2PO4, 1.2 MgCl2, 1.2 CaCl2), 10 Glucose, 10 HEPES (pH adjusted to 7.4 with NaOH) and the apical solution contained (in mM) 145 NaGluconate, 1.2 MgCl2, 1.2 CaCl2), 10 glucose, 10 HEPES (pH adjusted to 7.4 with NaOH) and 30 μM amiloride to block the epithelial sodium channel. Forskolin (20 μM) was added to the apical surface to activate CFTR, followed by apical addition of a CFTR inhibitor cocktail consisting of BPO, GlyH-101 and CFTR inhibitor 172 (each at 20 μM final assay concentration) to specifically isolate CFTR currents. The CFTR-mediated ISC (μA/cm^2) for each condition was determined from the peak forskolin response to the steady-state current following inhibition.
The activity of the CFTR potentiator compounds on the CFTR-mediated ISC was determined in Ussing chamber studies as described above. The F508del/MF-HBE cell cultures were incubated with the potentiator compounds at a range of concentrations in combination with 10 μM (14S)-8-[3-(2-{dispiro[2.0.2.1]heptan-7-yl}ethoxy)-1H-pyrazol-1-yl]-12,12-dimethyl-2λ^6-thia-3,9,11,18,23-pentaazatetracyclo[17.3.1.111,14.05,10]tetracosa-1(22),5,7,9,19(23),20-hexaene-2,2,4-trione for 18-24 hours at 37° C. and in the presence of 20% human serum. The concentration of potentiator compounds and (14S)-8-[3-(2-{dispiro[2.0.2.1]heptan-7-yl}ethoxy)-1H-pyrazol-1-yl]-12,12-dimethyl-2λ^6-thia-3,9,11,18,23-pentaazatetracyclo[17.3.1.111,14.05,10]tetracosa-1(22),5,7,9,19(23),20-hexaene-2,2,4-trione used during the 18-24 hours incubations was kept constant throughout the Ussing chamber measurement of the CFTR-mediated ISC to ensure compounds were present throughout the entire experiment. The efficacy and potency of the putative F508del potentiators was compared to that of the known potentiator, ivacaftor (N-[2,4-bis(1,1-dimethylethyl)-5-hydroxyphenyl]-1,4-dihydro-4-oxoquinoline-3-carboxamide).

Molecule | EC50
17-amino-12-[(3- cyclobutyl-5-fluoro- phenyl)methyl]-6- hydroxy-6,15- bis(trifluoromethyl)- 8,19-dioxa-3,4,12,18- tetrazatricyclo [12.3.1.12,5] nonadeca- 1(18),2,4,14,16- pentaen-13-one [Compound 263] | < 500 nM
17-amino-12-[(3-tert- butylphenyl)methyl]- 6-hydroxy-6,15- bis(trifluoromethyl)- 8,19-dioxa-3,4,12,18- tetrazatricyclo [12.3.1.12,5] nonadeca- 1(18),2,4,14,16- pentaen-13-one [Compound 261] | < 500 nM
Nc1cc(C(F)(F)F)c2nc1-c1nnc(o1)C(O)(C(F)(F)F)CCCCCCC2 (single isomer, unassigned) [Compound 2, 17-amino-6,15-bis(trifluoromethyl)-19-oxa-3,4,18-triazatricyclo[12.3.1.12,5]nonadeca-1(18),2,4,14,16-pentaen-6-ol] | < 500 nM
Nc1cc(C(F)(F)F)c2nc1-c1nnc(o1)C(O)(C(F)(F)F)CCCCCc1ccccc1-2 (single isomer, unassigned) [Compound 4, 21-amino-6,19-bis(trifluoromethyl)-23-oxa-3,4,22-triazatetracyclo[16.3.1.12,5.012,17]tricosa-1(22),2,4,12,14,16,18,20-octaen-6-ol] | < 500 nM
Nc1cc(C(F)(F)F)c2nc1-c1nnc(o1)C(O)(C(F)(F)F)CCCCCc1ccccc1-2 (single isomer, unassigned) [Compound 5, 21-amino-6,19-bis(trifluoromethyl)-23-oxa-3,4,22-triazatetracyclo[16.3.1.12,5.012,17]tricosa-1(22),2,4,12,14,16,18,20-octaen-6-ol] | > 1000 nM
Nc1cc(C(F)(F)F)c2nc1-c1nnc(o1)[C@](O)(C(F)(F)F)CCCCCCC2=O (single isomer, unassigned) [Compound 7] | > 1000 nM
Nc1cc(C(F)(F)F)c2nc1-c1nnc(o1)C(O)(C(F)(F)F)CCCCCCC2O (single isomer, unassigned) [Compound 8, 17-amino-6,15-bis(trifluoromethyl)-19-oxa-3,4,18-triazatricyclo[12.3.1.12,5]nonadeca-1(18),2,4,14,16-pentaene-6,13-diol] | < 500 nM
Nc1cc(C(F)(F)F)c2nc1-c1nnc(o1)C(O)(C(F)(F)F)CCCCCCC2O (single isomer, unassigned) [Compound 9, 17-amino-6,15-bis(trifluoromethyl)-19-oxa-3,4,18-triazatricyclo[12.3.1.12,5]nonadeca-1(18),2,4,14,16-pentaene-6,13-diol] | > 1000 nM
Nc1cc(C(F)(F)F)c2nc1-c1nnc(o1)C(O)(C(F)(F)F)CCCCCCC2O (single isomer, unassigned) [Compound 10, 17-amino-6,15-bis(trifluoromethyl)-19-oxa-3,4,18-triazatricyclo[12.3.1.12,5]nonadeca-1(18),2,4,14,16-pentaene-6,13-diol] | < 500 nM
Nc1cc(C(F)(F)F)c2nc1-c1nnc(o1)C(O)(C(F)(F)F)CCCCCCC2O (single isomer, unassigned) [Compound 11, 17-amino-6,15-bis(trifluoromethyl)-19-oxa-3,4,18-triazatricyclo[12.3.1.12,5]nonadeca-1(18),2,4,14,16-pentaene-6,13-diol] | > 1000 nM

Now from value to molecule:

EC50 | Molecule
< 500 nM | Nc1cc(C(F)(F)F)c2nc1-c1nnc(o1)[C@@](O)(C(F)(F)F)CCCCCN(CC1CCCCO1)C2=O (mixture of isomers) [Compound 130, (6R)-17-amino-6-hydroxy-12-(tetrahydropyran-2-ylmethyl)-6,15-bis (trifluoromethyl)-19-oxa-3,4,12,18-tetrazatricyclo [12.3.1.12,5] nonadeca-1(18),2,4,14,1 6-pentaen-13-one]
< 500 nM | Nc1cc(C(F)(F)F)c2nc1-c1nnc(o1)[C@@](O)(C(F)(F)F)CCCCCN(CC1CCCOC1)C2=O (mixture of isomers) [Compound 131, (6R)-17-Amino-6-hydroxy-12-(tetrahydropyran-3-ylmethyl)-6,15-bis (trifluoromethyl)-19-oxa-3,4,12,18-tetrazatricyclo [12.3.1.12,5] nonadeca-1(18),2,4,14,1 6-pentaen-13-one]
< 500 nM | Nc1cc(C(F)(F)F)c2nc1-c1nnc(o1)[C@@](O)(C(F)(F)F)CCCCCN(C1CCCOC1)C2=O (mixture of isomers) [Compound 133, (6R)-17-Amino-6-hydroxy-12-tetrahydropyran-3-yl-6,15-bis (trifluoromethyl)-19-oxa-3,4,12,18-tetrazatricyclo [12.3.1.12,5] nonadeca-1(18),2,4,14,1 6-pentaen-13-one]
< 500 nM | Nc1cc(C(F)(F)F)c2nc1-c1nnc(o1)C(O)(C(F)(F)F)c1cc(ccc1F)CCCN(C1CC(F)(F)C1)C2=O (racemic) [Compound 201, 20-amino-15-(3,3-difluorocyclobutyl)-8-fluoro-6-hydroxy-6,18-bis(trifluoromethyl)-23-oxa-3,4,15,21-tetraazatetracyclo [15.3.1.12,5.17,11] tricosa 1(21),2,4,7(22),8,10, 17,19-octaen-16-one]
< 500 nM | COC1CCCCCCC(O)(C(F)(F)F)C2=NN=C(O2)c2nc1c(C(F)(F)F)cc2N (single isomer, unassigned) [Compound 12, 17-Amino-13-methoxy-6,15-bis(trifluoromethyl)-19-oxa-3,4,18-triazatricyclo[12.3.1.12,5]nonadeca-1(18),2,4,14,16-pentaen-6-ol]
< 500 nM | COC1CCCCCCC(O)(C(F)(F)F)C2=NN=C(O2)c2nc1c(C(F)(F)F)cc2N (single isomer, unassigned) [Compound 13, 17-amino-13-methoxy-6,15-bis(trifluoromethyl)-19-oxa-3,4,18-triazatricyclo[12.3.1.12,5]nonadeca-1(18),2,4,14,16-pentaen-6-ol]
< 500 nM | COC1CCCCCCC(O)(C(F)(F)F)C2=NN=C(O2)c2nc1c(C(F)(F)F)cc2N (single isomer, unassigned) [Compound 14, 17-Amino-13-methoxy-6,15-bis(trifluoromethyl)-19-oxa-3,4,18-triazatricyclo[12.3.1.12,5]nonadeca-1(18),2,4,14,16-pentaen-6-ol]
500 to 1000 nM | COC1CCCCCCC(O)(C(F)(F)F)C2=NN=C(O2)c2nc1c(C(F)(F)F)cc2N (single isomer, unassigned) [Compound 15, 17-amino-13-methoxy-6,15-bis(trifluoromethyl)-19-oxa-3,4,18-triazatricyclo[12.3.1.12,5]nonadeca-1(18),2,4,14,16-pentaen-6-ol]
< 500 nM | CC1CCCCCCC(O)(C(F)(F)F)C2=NN=C(O2)c2nc1c(C(F)(F)F)cc2N (single isomer, unassigned) [Compound 16, 17-Amino-13-methyl-6,15-bis(trifluoromethyl)-19-oxa-3,4,18-triazatricyclo[12.3.1.12,5]nonadeca-1(18),2,4,14,16-pentaen-6-ol]
< 500 nM | CC1CCCCCCC(O)(C(F)(F)F)C2=NN=C(O2)c2nc1c(C(F)(F)F)cc2N (single isomer, unassigned) [Compound 17, 17-amino-13-methyl-6,15-bis(trifluoromethyl)-19-oxa-3,4,18-triazatricyclo[12.3.1.12,5]nonadeca-1(18),2,4,14,16-pentaen-6-ol]
< 500 nM | CC1CCCCCCC(O)(C(F)(F)F)C2=NN=C(O2)c2nc1c(C(F)(F)F)cc2N (single isomer, unassigned) [Compound 18, 17-amino-13-methyl-6,15-bis(trifluoromethyl)-19-oxa-3,4,18-triazatricyclo[12.3.1.12,5]nonadeca-1(18),2,4,14,16-pentaen-6-ol]
< 500 nM | CC1CCCCCCC(O)(C(F)(F)F)C2=NN=C(O2)c2nc1c(C(F)(F)F)cc2N (single isomer, unassigned) [Compound 19, 17-amino-13-methyl-6,15-bis(trifluoromethyl)-19-oxa-3,4,18-triazatricyclo[12.3.1.12,5]nonadeca-1(18),2,4,14,16-pentaen-6-ol]
